Reference: US7955847B2, “Method for enhancing leukocyte immune function” (priority 2004, dated 2011)

Test system: leukocyte NADPH oxidase (cytochrome b558)
Test: Cell surface expression of cytochrome b558 (NADPH oxidase) by flow cytometry with antibody 7D5
Type: cell-based, human
Conditions: leukocytes from X91-CGD patient; 2 hrs treatment; anti-cytochrome b558 antibody 7D5, flow cytometry
Protocol: Blood samples with EDTA were obtained from patients with X91-chronic granulomatous disease. The samples were water bathed at 37° C. in a lysate buffer containing ammonium chloride, sodium carbonate and EDTA for several minutes to lyze residual red blood cells. The samples were then added with a suspension buffer containing globulin and EDTA to wash and remove the residual lysate buffer. The leukocytes were collected by centrifugation and counted.
Total leukocytes were maintained in RPMI 1640 medium supplemented with 10% heat-inactivated FBS at 37° C. under a humidified atmosphere (5% CO2+95% air). The leukocytes were seeded at a density of 3 to 5×10^5/ml and grown for 2 hrs in the presence or absence of 100 nM cofactor FAD and/or thapsigargin (100 nM or 1 μM). The cells were then cultured in 10% RPMI to recover for 1 hr prior to the following experiments.
To test whether the treatment with thapsigargin or cofactor FAD alone or in combination has effects on the cell surface expression of leukocyte NADPH oxidase, the cell surface expressions of cytochrome b558 in leukocytes with or without desired treatment were assayed. Leukocytes were prepared as illustrated in Example 1. The leukocytes, at the concentration of 5×10^5 cells/ml, were incubated with anticytochrome b558 monoclonal antibody (7D5) at 4° C. for 30 min, followed by incubation with FITC-labeled goat anti-mouse IgG for 40 min.

SMILES | cell surface NADPH oxidase expression
Cc1cc2nc3c(=O)[nH]c(=O)nc-3n(C[C@H](O)[C@H](O)[C@H](O)COP(=O)(O)OP(=O)(O)OC[C@H]3O[C@@H](n4cnc5c(N)ncnc54)[C@H](O)[C@@H]3O)c2cc1C [cofactor FAD, flavin adenine dinucleotide] | slightly enhanced
C/C=C(/C)C(=O)O[C@H]1C(C)=C2[C@H]([C@@H]1OC(=O)CCCCCCC)[C@@](C)(OC(C)=O)C[C@H](OC(=O)CCC)[C@@]1(O)[C@H]2OC(=O)[C@@]1(C)O [thapsigargin] | slightly enhanced
